Series [1] addresses T1, Tyrosine-protein kinase JAK2 (Homo sapiens, UniProt O60674). In words: Inhibition of JAK2 in GM-CSF-stimulated human TF1 cells preincubated for 1 hr prior to challenge.
Series [2] concerns the target T1, Tyrosine-protein kinase JAK2. In words: Inhibition of human recombinant JAK2 expressed in baculovirus expression system after 20 mins by time resolved fluorescence assay.
Series [3] has as its target T2, Focal adhesion kinase 1 (Homo sapiens, UniProt Q05397). In words: Inhibition of FAK in human 293GT cells after 1 hr by luminescence-based spectrophotometry. The format is cell-based.
Series [4] concerns the target T2, Focal adhesion kinase 1. In words: Inhibition of human recombinant FAK expressed in baculovirus expression system after 30 mins by time resolved fluorescence assay.
A short description of series [5]: Metabolic stability in human liver microsomes. The format is ADME, Microsome. Conditions: read-out: Stability. (In general: Liver microsomes are vesicles of endoplasmic reticulum, rich in cytochrome P450 enzymes.)
The nature of series [6]: Metabolic stability in rat liver microsomes. As to conditions: read-out: Stability. The format is ADME, Microsome.
The nature of series [7]: Metabolic stability in mouse liver microsomes. The format is ADME, Microsome. As to conditions: read-out: Stability.
Series [8] is described as follows: Metabolic stability in dog liver microsomes. The format is ADME, Canis lupus familiaris, Microsome. Conditions: read-out: Stability.
The target in the next series is Insulin receptor (Homo sapiens, UniProt P06213). In words: Inhibition of insulin receptor.
Chain of Insulin receptor (P06213 28-758 limits assumed): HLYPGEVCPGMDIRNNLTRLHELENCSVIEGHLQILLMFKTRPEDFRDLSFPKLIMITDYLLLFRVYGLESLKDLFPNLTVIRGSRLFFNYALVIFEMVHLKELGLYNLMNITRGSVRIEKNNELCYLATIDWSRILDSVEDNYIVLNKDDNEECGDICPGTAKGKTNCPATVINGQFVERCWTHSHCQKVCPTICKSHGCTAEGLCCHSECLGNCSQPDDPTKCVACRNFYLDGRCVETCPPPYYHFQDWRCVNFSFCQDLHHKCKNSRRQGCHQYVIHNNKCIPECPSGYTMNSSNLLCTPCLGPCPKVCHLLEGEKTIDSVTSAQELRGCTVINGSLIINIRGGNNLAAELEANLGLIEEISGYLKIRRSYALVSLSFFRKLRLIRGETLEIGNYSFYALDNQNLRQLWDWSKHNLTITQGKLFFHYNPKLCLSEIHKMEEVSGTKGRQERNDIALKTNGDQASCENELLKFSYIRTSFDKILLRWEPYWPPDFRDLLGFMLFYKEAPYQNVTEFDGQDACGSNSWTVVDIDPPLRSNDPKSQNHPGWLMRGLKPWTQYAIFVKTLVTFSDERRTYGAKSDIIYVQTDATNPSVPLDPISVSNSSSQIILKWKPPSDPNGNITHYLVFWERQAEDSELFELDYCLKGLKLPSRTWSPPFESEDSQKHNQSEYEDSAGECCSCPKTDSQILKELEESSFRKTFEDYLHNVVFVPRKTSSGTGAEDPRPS
Chain of Insulin receptor (P06213 763-1382 limits assumed): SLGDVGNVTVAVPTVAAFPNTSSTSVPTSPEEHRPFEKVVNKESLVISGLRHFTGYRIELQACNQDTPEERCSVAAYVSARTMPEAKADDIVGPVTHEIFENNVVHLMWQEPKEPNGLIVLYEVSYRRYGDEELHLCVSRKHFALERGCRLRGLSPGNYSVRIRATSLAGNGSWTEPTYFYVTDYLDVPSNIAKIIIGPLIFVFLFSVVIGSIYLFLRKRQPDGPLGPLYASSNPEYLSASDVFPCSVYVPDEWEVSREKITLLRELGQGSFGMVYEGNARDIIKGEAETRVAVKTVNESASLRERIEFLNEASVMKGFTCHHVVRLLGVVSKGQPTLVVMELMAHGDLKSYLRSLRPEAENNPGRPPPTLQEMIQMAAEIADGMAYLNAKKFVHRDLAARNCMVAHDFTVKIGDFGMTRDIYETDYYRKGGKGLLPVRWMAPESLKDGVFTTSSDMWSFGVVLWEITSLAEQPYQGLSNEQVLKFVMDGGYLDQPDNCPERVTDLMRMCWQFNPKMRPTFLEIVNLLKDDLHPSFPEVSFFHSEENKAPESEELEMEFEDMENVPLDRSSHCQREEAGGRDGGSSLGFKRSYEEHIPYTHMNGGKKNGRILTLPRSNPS
Series [9] can be described thus: Clearance in Sprague-Dawley rat at 1 mg/kg, iv. The format is ADME, organism-based. More on the design: dose 1 mg/kg, route intravenous. Conditions: in vivo.
Series [10] in a line: Volume of distribution in Sprague-Dawley rat at 1 mg/kg, iv. The format is ADME, organism-based. As to conditions: in vivo. More on the design: dose 1 mg/kg, route intravenous.
Series [11] can be described thus: Tmax in Sprague-Dawley rat at 5 mg/kg, po. The format is ADME, organism-based. More on the design: dose 5 mg/kg, route oral. As to conditions: in vivo.
Series [12] is described as follows: AUC (0 to t) in Sprague-Dawley rat at 1 mg/kg, iv. The format is ADME, organism-based. More on the design: dose 1 mg/kg, route intravenous. Conditions: plasma.
A short description of series [13]: Half life in Sprague-Dawley rat at 1 mg/kg, iv. The format is ADME, organism-based. Further details: dose 1 mg/kg, route intravenous. Conditions: in vivo.
Series [14] can be described thus: Plasma protein binding in mouse. The format is ADME, cell-free. Conditions: read-out: PPB (converted).
The target in series [15] is T3, Tyrosine-protein kinase JAK3 (Homo sapiens, UniProt P52333).
T3 sequence (P52333 whole entry): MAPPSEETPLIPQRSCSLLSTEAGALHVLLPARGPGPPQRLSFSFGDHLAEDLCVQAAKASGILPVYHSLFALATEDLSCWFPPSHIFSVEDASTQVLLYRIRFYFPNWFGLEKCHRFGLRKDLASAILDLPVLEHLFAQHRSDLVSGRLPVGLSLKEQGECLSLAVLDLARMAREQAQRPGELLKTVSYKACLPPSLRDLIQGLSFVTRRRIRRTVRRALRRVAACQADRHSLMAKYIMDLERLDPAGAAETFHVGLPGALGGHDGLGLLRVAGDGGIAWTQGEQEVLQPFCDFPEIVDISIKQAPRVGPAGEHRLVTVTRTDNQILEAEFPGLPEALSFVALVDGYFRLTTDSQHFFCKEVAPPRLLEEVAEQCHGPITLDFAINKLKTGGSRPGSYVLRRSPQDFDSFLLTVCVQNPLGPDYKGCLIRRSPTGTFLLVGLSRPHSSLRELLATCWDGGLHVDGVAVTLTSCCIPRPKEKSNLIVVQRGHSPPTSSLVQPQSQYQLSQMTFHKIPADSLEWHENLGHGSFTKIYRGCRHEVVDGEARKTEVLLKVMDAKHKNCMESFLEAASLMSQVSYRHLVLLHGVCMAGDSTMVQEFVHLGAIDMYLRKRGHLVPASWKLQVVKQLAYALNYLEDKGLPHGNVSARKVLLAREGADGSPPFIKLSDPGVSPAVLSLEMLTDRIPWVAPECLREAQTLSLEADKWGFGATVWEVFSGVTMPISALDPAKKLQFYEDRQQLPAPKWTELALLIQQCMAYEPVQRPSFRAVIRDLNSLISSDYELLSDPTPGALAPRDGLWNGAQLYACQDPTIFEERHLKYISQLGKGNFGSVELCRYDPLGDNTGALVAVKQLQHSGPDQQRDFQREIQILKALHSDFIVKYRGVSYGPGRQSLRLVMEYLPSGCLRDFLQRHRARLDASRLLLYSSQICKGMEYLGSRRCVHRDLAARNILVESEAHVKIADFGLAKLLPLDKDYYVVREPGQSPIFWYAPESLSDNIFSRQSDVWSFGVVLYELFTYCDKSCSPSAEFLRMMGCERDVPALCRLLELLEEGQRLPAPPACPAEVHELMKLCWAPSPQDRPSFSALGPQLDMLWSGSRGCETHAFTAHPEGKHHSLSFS
In words: Inhibition of JAK3.

The test system of series [16] is Mus musculus. In words: Inhibition of FAK phosphorylation in human CWR22 cells xenografted in mouse at 55 mg/kg, po administered as a single dose measured at 2 hrs. The format is functional. Conditions: CWR22, 2 h. In general terms: Xenograft models place foreign cells or tissue in a host animal.
Series [17] in a line: AUC (0 to infinity) in Sprague-Dawley rat at 5 mg/kg, po. The format is ADME, organism-based. Further details: time infinity, dose 5 mg/kg, route oral. Conditions: plasma.
For series [18], the system named is Mus musculus. In words: Inhibition of JAK2-mediated STAT3 phosphorylation in human CWR22 cells xenografted mouse at 55 mg/kg, po administered as a single dose measured up to 12 hrs. The format is functional. Conditions: CWR22, 12 h.
A short description of series [19]: Cmax in Sprague-Dawley rat at 5 mg/kg, po. More on the design: dose 5 mg/kg, route oral. The format is ADME, organism-based. Conditions: in vivo.
Series [20] can be described thus: Oral bioavailability in Sprague-Dawley rat at 5 mg/kg. As to conditions: in vivo. The format is ADME, organism-based.

Consider 21 compounds from ChEMBL document CHEMBL1932974, “Optimization of a novel kinase inhibitor scaffold for the dual inhibition of JAK2 and FAK kinases” (Bioorg Med Chem Lett, 2012).

Some results are limits rather than exact numbers.

As a reminder, the IC50 is the concentration needed to halve the response being measured. Usually clearance stands for the volume of plasma or blood freed of the substance per unit of time. The term Vd denotes the apparent volume that relates the amount in the body to the concentration in plasma or blood. A higher Vd goes with wide distribution into tissue. Usually Tmax stands for the time from dosing to the highest level. The term AUC(0-t) denotes exposure summed from dosing to a finite time, without extrapolation to infinity. High values mean high exposure, low ones low exposure. What is called inhibition in vivo is the relative decrease from the control value, in per cent. The low end stands for a response near the control, the high end for a response far below the control. One may read the AUC(0-inf) as the area under the concentration-time curve extrapolated to infinity. The low end stands for less exposure, the high end for more exposure. One may read the Cmax as the peak of the concentration-time curve. In general, bioavailability refers to the share of a dose that reaches the circulation, judged against a reference dose that is usually intravenous. A high value points to much systemic uptake.

T2 sequence (Q05397 whole entry): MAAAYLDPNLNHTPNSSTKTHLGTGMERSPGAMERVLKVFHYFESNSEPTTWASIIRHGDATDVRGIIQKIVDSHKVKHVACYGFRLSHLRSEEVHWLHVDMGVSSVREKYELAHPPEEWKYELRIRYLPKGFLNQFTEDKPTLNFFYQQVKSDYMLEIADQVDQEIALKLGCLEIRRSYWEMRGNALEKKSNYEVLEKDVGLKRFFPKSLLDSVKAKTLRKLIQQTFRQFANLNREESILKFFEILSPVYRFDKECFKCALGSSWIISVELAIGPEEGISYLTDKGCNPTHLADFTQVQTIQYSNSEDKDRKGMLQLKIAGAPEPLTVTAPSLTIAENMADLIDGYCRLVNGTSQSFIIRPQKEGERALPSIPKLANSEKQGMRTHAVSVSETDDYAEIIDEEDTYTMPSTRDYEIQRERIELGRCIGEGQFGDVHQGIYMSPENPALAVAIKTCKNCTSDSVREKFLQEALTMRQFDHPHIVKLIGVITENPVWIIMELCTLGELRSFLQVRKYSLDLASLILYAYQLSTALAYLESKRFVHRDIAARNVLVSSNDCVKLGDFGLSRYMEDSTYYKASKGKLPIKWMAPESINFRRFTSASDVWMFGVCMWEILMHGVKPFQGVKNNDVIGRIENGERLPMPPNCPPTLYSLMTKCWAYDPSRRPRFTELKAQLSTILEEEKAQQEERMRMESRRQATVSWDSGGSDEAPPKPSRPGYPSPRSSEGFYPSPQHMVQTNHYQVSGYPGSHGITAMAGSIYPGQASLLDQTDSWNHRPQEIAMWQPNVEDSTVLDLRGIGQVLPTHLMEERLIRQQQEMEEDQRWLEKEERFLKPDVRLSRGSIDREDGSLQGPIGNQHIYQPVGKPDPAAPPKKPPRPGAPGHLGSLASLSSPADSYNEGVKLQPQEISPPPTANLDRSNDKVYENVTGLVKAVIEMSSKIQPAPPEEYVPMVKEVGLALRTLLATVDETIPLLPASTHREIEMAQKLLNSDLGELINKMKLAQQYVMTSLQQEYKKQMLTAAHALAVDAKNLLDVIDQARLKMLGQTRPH
T1 sequence (O60674 whole entry): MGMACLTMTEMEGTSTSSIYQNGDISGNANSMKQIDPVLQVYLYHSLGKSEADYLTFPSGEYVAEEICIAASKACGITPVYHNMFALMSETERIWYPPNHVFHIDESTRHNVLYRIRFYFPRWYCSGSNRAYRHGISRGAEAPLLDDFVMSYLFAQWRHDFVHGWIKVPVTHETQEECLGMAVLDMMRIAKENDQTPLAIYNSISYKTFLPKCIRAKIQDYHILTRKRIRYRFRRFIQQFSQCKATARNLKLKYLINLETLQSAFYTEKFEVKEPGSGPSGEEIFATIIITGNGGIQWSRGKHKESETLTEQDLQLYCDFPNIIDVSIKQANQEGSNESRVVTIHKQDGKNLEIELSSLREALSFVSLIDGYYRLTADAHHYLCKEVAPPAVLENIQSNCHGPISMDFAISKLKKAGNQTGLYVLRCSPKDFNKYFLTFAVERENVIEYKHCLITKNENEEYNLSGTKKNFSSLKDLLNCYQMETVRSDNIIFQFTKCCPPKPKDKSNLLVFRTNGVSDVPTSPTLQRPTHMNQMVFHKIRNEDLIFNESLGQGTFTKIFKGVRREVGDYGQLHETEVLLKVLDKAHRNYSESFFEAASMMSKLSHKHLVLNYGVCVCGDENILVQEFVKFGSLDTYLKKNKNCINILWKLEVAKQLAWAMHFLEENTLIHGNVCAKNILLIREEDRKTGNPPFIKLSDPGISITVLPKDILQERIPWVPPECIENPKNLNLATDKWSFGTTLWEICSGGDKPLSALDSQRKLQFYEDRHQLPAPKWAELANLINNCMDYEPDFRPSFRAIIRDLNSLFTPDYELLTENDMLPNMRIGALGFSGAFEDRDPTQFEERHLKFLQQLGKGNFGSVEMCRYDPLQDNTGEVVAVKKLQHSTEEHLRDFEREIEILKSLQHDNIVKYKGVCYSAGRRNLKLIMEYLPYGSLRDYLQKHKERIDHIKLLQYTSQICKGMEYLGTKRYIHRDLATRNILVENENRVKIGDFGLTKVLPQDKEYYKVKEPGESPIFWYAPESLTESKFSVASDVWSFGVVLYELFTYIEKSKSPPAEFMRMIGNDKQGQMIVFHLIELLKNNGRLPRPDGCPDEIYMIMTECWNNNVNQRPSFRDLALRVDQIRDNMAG

With `COc1ccc(-c2ccc3cnc(Nc4ccc(C5CCN(CC(N)=O)CC5)cc4)nn23)cn1`, the half-inhibitory concentration (IC50) in series [1] was found to be 62 nM; in series [2] it was 0.77 nM; against Focal adhesion kinase 1 [3] it was 1190 nM; at Focal adhesion kinase 1 [4], 39 nM.

For `CN(c1ccccc1-c1ccc2cnc(Nc3ccc(C4CCN(CC(N)=O)CC4)cc3)nn12)S(C)(=O)=O`, the half-life in [5] is less than 5 min; in [6] it was 6 min; in series [7], 15 min; in series [8], 11 min. For the same compound, the IC50 amounted to 15 nM in [1], 2 nM in [2], 610 nM against Focal adhesion kinase 1 [3] and 14 nM at Focal adhesion kinase 1 [4].

Regarding `COc1cc(C2CCN(CC(N)=O)CC2)ccc1Nc1ncc2ccc(-c3ccccc3OC)n2n1`, the concentration for half-maximal inhibition (IC50) in series [2] was 250 nM; at Focal adhesion kinase 1 [4], 21 nM.

As for `CS(=O)(=O)Nc1cccc(-c2ccc3cnc(Nc4ccc(C5CCN(CC(N)=O)CC5)cc4)nn23)c1`, the IC50 in [1] came out at 60 nM; in [2], 0.22 nM; against Focal adhesion kinase 1 [3], 660 nM; on Focal adhesion kinase 1 [4], 21 nM.

Consider `CS(=O)(=O)c1ccc(-c2ccc3cnc(Nc4ccc(C5CCN(CC(N)=O)CC5)cc4)nn23)cc1`, for which the half-inhibitory concentration (IC50) in series [1] is 29 nM; in series [2], 0.22 nM; on Focal adhesion kinase 1 [3], more than 10000 nM; at Focal adhesion kinase 1 [4], 114 nM.

In the case of `NC(=O)CN1CCC(c2ccc(Nc3ncc4ccc(-c5cccc6c5OC(F)(F)O6)n4n3)cc2)CC1`, the IC50 was more than 1000 nM in series [1], 13 nM in series [2] and 122 nM at Focal adhesion kinase 1 [4].

For the compound `NC(=O)CN1CCC(c2ccc(Nc3ncc4ccc(-c5cnccn5)n4n3)cc2)CC1`, the IC50 in series [1] amounted to 282 nM; in series [2], 8.9 nM; at Focal adhesion kinase 1 [4], 551 nM.

In the case of `CN(c1ncccc1-c1ccc2cnc(Nc3ccc(C4CCN(CC(N)=O)CC4)cc3)nn12)S(C)(=O)=O`, the IC50 worked out at 38 nM in series [1], 2.1 nM in series [2], 750 nM against Focal adhesion kinase 1 [3] and 14 nM at Focal adhesion kinase 1 [4].

As to `CC(C)(C)NS(=O)(=O)c1cccc(-c2ccc3cnc(Nc4ccc(C5CCN(CC(N)=O)CC5)cc4)nn23)c1`, the IC50 in series [1] turned out to be 90 nM; in [2] it was 0.64 nM; against Focal adhesion kinase 1 [3], 1340 nM; at Focal adhesion kinase 1 [4], 5.7 nM.

Regarding `Cc1cc(-c2ccccc2N(C)S(C)(=O)=O)n2nc(Nc3ccc(C4CCN(CC(N)=O)CC4)cc3)ncc12`, the concentration for half-maximal inhibition (IC50) at Focal adhesion kinase 1 [3] amounted to 1230 nM; at Focal adhesion kinase 1 [4], 11 nM.

Regarding `CN(C)Cc1ccc(-c2ccc3cnc(Nc4ccc(C5CCN(CC(N)=O)CC5)cc4)nn23)cc1`, the 50% inhibitory concentration (IC50) in series [2] is 2900 nM; on Focal adhesion kinase 1 [4], more than 1000 nM.

`CN(c1cccc(-c2ccc3cnc(Nc4ccc(C5CCN(CC(N)=O)CC5)cc4)nn23)c1)S(C)(=O)=O`: the IC50 in series [1] is 45 nM; in series [2], 0.09 nM; at Focal adhesion kinase 1 [3], more than 10000 nM; at Focal adhesion kinase 1 [4] it was 48 nM.

For the compound `NC(=O)CN1CCC(c2ccc(Nc3ncc4ccc(-c5cccc(CO)c5)n4n3)cc2)CC1`, the concentration for half-maximal inhibition (IC50) stood at 27 nM in series [1], 0.27 nM in series [2], 1390 nM against Focal adhesion kinase 1 [3] and 33 nM on Focal adhesion kinase 1 [4].

As to `COc1cccnc1-c1ccc2cnc(Nc3ccc(C4CCN(CC(N)=O)CC4)cc3)nn12`, the IC50 is 1140 nM in series [1], 16 nM in series [2], more than 10000 nM on Focal adhesion kinase 1 [3] and 2040 nM at Focal adhesion kinase 1 [4].

As for `CN(c1ccccc1-c1cc(Cl)c2cnc(Nc3ccc(C4CCN(CC(N)=O)CC4)cc3)nn12)S(C)(=O)=O`, the half-life in [5] is 11 min; in series [6], 21 min; in [7] it was 26 min; in series [13], 60 min; in [8], 17 min. Further, the IC50 at Insulin receptor is 380 nM; in series [1], 12 nM; in [2], 2.5 nM; on Focal adhesion kinase 1 [3], 420 nM; on Focal adhesion kinase 1 [4], 5 nM; in series [15], 2.9 nM. Also, the clearance in series [9] turned out to be 14 mL/min/kg. This compound came in with a volume of distribution (Vd) in series [10] of 1.3 L/kg. Also, the Tmax in series [11] stood at 132 min. The same compound gave an AUC(0-t) in series [12] of 1320 ng·h/mL. For the same compound, the fraction unbound in series [14] is 0.006. The inhibition in vivo at 55 mg/kg with Mus musculus [16] and with Mus musculus [18] was more than 75% throughout. Also, the AUC(0-inf) in [17] turned out to be 832 ng·h/mL. This compound came in with a Cmax in series [19] of 185 ng/mL. This compound also registered a bioavailability in series [20] of 12%.

On to `NC(=O)CN1CCC(c2ccc(Nc3ncc4ccc(-c5ncccn5)n4n3)cc2)CC1`, for which the IC50 in series [2] is 85 nM; on Focal adhesion kinase 1 [4], more than 10000 nM.

For `COc1cc(Nc2ncc3ccc(-c4ccccc4)n3n2)cc(OC)c1OC`, the IC50 in series [2] worked out at 0.2 nM; at Focal adhesion kinase 1 [4], 17 nM.

On to `COc1ccccc1-c1ccc2cnc(Nc3ccc(C4CCN(CC(N)=O)CC4)cc3)nn12`, for which the IC50 worked out at 41 nM in [1], 0.6 nM in [2], 690 nM against Focal adhesion kinase 1 [3] and 55 nM on Focal adhesion kinase 1 [4].

On to `CS(=O)(=O)N1Cc2cccc(-c3ccc4cnc(Nc5ccc(C6CCN(CC(N)=O)CC6)cc5)nn34)c2C1`, for which the IC50 on Focal adhesion kinase 1 [4] amounted to 205 nM.

With `CS(=O)(=O)c1cccc(-c2ccc3cnc(Nc4ccc(C5CCN(CC(N)=O)CC5)cc4)nn23)c1`, the IC50 in [1] came to 58 nM; in [2], 0.52 nM; on Focal adhesion kinase 1 [3], 1010 nM; on Focal adhesion kinase 1 [4] it was 25 nM.

As for `NC(=O)CN1CCC(c2ccc(Nc3ncc4ccc(-c5cccc6cccnc56)n4n3)cc2)CC1`, the IC50 in [1] was 170 nM; in [2] it was 6.3 nM; on Focal adhesion kinase 1 [4] it was 167 nM.
